Data published in patent US11224609B2, “Mithramycin derivatives having increased selectivity and anti-cancer activity” (University of Kentucky Research Foundation, priority 2017, dated 2022).

Tests used:
[1] = system: NR0B1 promoter (binding promoter of EWS-FLI1); test: NR0B1 promoter luciferase reporter assay in stably transfected TC-32 cells; assay type: cell-based; details: 12 h treatment
Excerpt: Full-length NR0B1 promoter sequence was PCR amplified using Q5 high-fidelity DNA polymerase (New England Biolabs, Ipswich, Mass.) from genomic DNA of TC-32 cells and cloned into the pGLUC-Basic 2 vector (New England Biolabs, Ipswich, Mass.). XhoI and KpnI restriction sites were incorporated into the primers. After restriction enzyme (New England Biolabs, Ipswich, Mass.) digest and purification by gel electrophoresis, the target amplicon was ligated into the pGLUC-Basic 2 vector using T4 DNA ligase (Thermo Fisher Scientific, Waltham, Mass.). Chemically competent TOP10 E. coli cells were used to propagate vectors under ampicillin selection (100 μg/mL) (Thermo Fisher Scientific, Waltham, Mass.). The resulting vectors were extracted and purified using GeneJET plasmid prep kit (Thermo Fisher Scientific, Waltham, Mass.). […]
Selected TC-32 cells, expressing either NR0B1 or CMV luciferase reporter vectors, were seeded in clear 96-well plates at a density of 10,000 cells/well. […] Lysates (80 μL) were transferred to a white luminescence plate. Luciferase substrate, either coelenterazine or D-luciferin (50 μL of 1× solution), for NR0B1 or CMV vectors, respectively, was added in a Glomax 96 microplate luminometer (Promega, Madison, Wis.) and luminescence was immediately measured. […] Luminescence results were normalized to cell viability.

[2] = system: HCT 116 cells; test: 72 h GI50 assay in HCT 116; details: read-out: HCT 116 GI50; 72 h growth inhibition
[3] = system: TC-71 Ewing sarcoma cells (EWS-FLI1 Type 1); details: 72 h growth inhibition
[4] = system: RD-ES Ewing sarcoma cells (EWS-FLI1 Type 2); test: 72 h GI50 assay in RD-ES; details: read-out: RD-ES EWS-FLI1 Type 2 GI50; 72 h growth inhibition
[5] = system: PC-3 (prostate cancer, no ETS translocation) cell line; test: 72 h growth inhibition (GI50) assay in PC-3; details: read-out: PC-3 Prostate cancer No ETS Translocation GI50; 72 h growth inhibition, PC-3 cells
[6] = system: DMS 114 cells; test: 72 h GI50 assay in DMS 114; details: read-out: DMS 114 GI50; 72 h growth inhibition
[7] = system: ES-2 Ewing sarcoma cells (EWS-FLI1 Type 3); test: 72 h GI50 assay in ES-2; details: read-out: ES-2 EWS-FLI1 Type 3 GI50; 72 h growth inhibition
[8] = system: LNCaP cells; test: 72 h GI50 assay in LNCaP; details: read-out: LNCaP GI50; 72 h growth inhibition

COC(=O)C(Cc1c[nH]c2ccccc12)NC(=O)C(Cc1c[nH]c2ccccc12)NC(=O)C(OC)C1Cc2cc3cc(OC4CC(OC5CC(O)C(O)C(C)O5)C(O)C(C)O4)c(C)c(O)c3c(O)c2C(=O)C1OC1CC(OC2CC(OC3CC(C)(O)C(O)C(C)O3)C(O)C(C)O2)C(O)C(C)O1 (stereo not shown) [Analogue 61, MTMSA-Trp-Trp]
NR0B1 promoter driven luciferase signal [1]: decreased | GI50 [2]: 198 nM | TC-71 EWS-FLI1 Type 1 GI50 [3]: 35 nM | GI50 [4]: 57 nM | GI50 [5]: 568 nM | GI50 [6]: 1120 nM | GI50 [7]: 123 nM | GI50 [8]: 856 nM

COC(=O)C(Cc1c[nH]c2ccccc12)NC(=O)C(Cc1ccccc1)NC(=O)C(OC)C1Cc2cc3cc(OC4CC(OC5CC(O)C(O)C(C)O5)C(O)C(C)O4)c(C)c(O)c3c(O)c2C(=O)C1OC1CC(OC2CC(OC3CC(C)(O)C(O)C(C)O3)C(O)C(C)O2)C(O)C(C)O1 (stereo not shown) [Analogue 60, MTMSA-Phe-Trp]
NR0B1 promoter driven luciferase signal [1]: decreased | GI50 [2]: 449 nM | TC-71 EWS-FLI1 Type 1 GI50 [3]: 44 nM | GI50 [4]: 50 nM | GI50 [5]: 1130 nM | GI50 [6]: 1140 nM | GI50 [7]: 78 nM | GI50 [8]: 1610 nM
